Measured values from patent US5302514A, “Maltooligoside derivative, reagent for determining α-amylase activity containing the same as effective ingredient and a process for determining the α-amylase activity using same” (Kikkoman Corporation, priority 1991, dated 1994).

Key:
[1] = tested on: human α-amylase (P:S=1:1); assay: α-Amylase hydrolysis (increase in absorbance at 400 nm with coupled enzymes); assay type: biochemical; conditions: for Increase in absorbance for 2 minutes (corrected by the 0 IU/l of α-amylase activity): substrate solution 3.00 mM, 400 nm, 37° C., pH 7.0; for hydrolysis by α-amylase (in words): as understood from Tables 1 and 2
Procedure: Coupled enzyme solution was prepared by dissolving a commercially available α-glucosidase derived from yeast and a commercially available β-glucosidase derived from almond in a 50 mM phosphate buffer (pH=7.0) containing 40 mM NaCl and 2 mM MgCl2 to a concentration of 117 units/ml and 13 units/ml, respectively. As the commercially available α- and β-glucosidases, those available from Toyobo Co., Ltd. were used.
Standard α-amylase solutions were prepared by dissolving a commercially available human α-amylase (P:S=1:1) in purified water to a concentration of 0, 148, 284, 401 and 525 IU/l, respectively. As the commercially available human α-amylase, Calibzyme.AMY manufactured by International Reagents Corp. was employed. As for the activity of α-amylase, an amount of the enzyme which decomposes 1μ mol of (a commercially available) 2-chloro-4-nitrophenyl β-D-maltopentaoside at 37° C. for one minute was defined as 1 international unit (IU).
The substrate solution (a) was prepared by dissolving 2-chloro-4-nitorphenyl 6^5 -azido-6^5 -deoxy-β-D-maltopentaoside (referred to hereinafter as the substrate of the present invention) obtained in Example 3 in a 50 mM phosphate buffer (pH=7.0) containing 40 mM NaCl and 2 mM MgCl2 to a concentration of 3.00 mM.
The substrate solution (b) was prepared by dissolving 2-chloro-4-nitrophenyl 6^3 -azido-6^3 -deoxy-β-D-maltotrioside (referred to hereinafter as the reference substrate) obtained in the step (1) in a 50 mM phosphate buffer (pH=7.0) containing 40 mM NaCl and 2 mM MgCl2 to a concentration of 3.00 mM.
A coupled enzyme solution was prepared in the same manner as in the step (2) of Example 5.
α-amylase solutions were prepared in the same manner as in the step (3) of Example 5 by dissolving a commercially available human α-amylase (P:S=1:1) in purified water to a concentration of 0, 250 and 500 IU/l, respectively.
The coupled enzyme solution in an amount of 1.0 ml was added with stirring to 250 μl of the α-amylase solution, and the mixture was heated at 37° C. for one minute. Each of the substrate solution in an amount of 2.0 ml was added with stirring to the mixture, and the mixture was heated at 37° C. for 2 minutes before measuring the variation of the absorbance at 400 nm for 2 minutes.
2-chloro-4-nitrophenyl 5^5 -eno-4^5 -O-mesyl-β-D-maltopentaoside (referred to hereinafter as substrate of the present invention) obtained in Example 1 was dissolved in a 50 mM phosphate buffer (pH=7.0) containing 40 mM NaCl and 2 mM MgCl2 to a concentration of 3.00 mM.
2-chloro-4-nitrophenyl 5^3 -eno-4^3 -O-mesyl-β-D-maltotrioside(referred to hereinafter as reference substrate) obtained in the previous step (1) was dissolved in a 50 mM phosphate buffer (pH=7.0) containing 40 mM NaCl an 2 mM MgCl2 to a concentration of 3.00 mM.
α-amylase solutions were prepared in the same manner as in the step (5) of Example 7.
The variations of absorbance were measured in the same manner as in the step (6) of Example 7.

[2] = molecular target: T1, amylase derived from human saliva (human S type α-amylase) (Homo sapiens, UniProt P0DUB6); assay: Hydrolysis rate, S type α-amylase; assay type: biochemical; conditions: relative to hydrolysis rate of 3 mM G5CNP defined as 10, substrate 7-9 times the Km
T1 sequence (P0DUB6 16-511): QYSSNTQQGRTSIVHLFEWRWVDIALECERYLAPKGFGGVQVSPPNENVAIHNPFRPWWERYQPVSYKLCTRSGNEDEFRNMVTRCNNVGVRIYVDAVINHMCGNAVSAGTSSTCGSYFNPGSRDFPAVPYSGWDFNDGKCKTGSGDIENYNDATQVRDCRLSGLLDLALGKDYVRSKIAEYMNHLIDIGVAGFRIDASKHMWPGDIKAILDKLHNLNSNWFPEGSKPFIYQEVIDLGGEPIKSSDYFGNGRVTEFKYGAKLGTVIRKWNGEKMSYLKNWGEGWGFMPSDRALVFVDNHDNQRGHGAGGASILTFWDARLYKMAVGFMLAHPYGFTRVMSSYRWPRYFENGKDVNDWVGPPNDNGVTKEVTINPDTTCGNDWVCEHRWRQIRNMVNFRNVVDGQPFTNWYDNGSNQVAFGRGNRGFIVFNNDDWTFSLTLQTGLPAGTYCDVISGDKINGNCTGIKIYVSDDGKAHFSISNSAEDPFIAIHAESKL
Procedure: (§1) The coupled enzyme solution was prepared in the same manner as in the step (2) of Example 5.
(§2) Commercially available human P type and S type α-amylase solutions having a concentration of ca. 500 IU/l were prepared in the same manner as in the step (3) of Example 5.
(§3) With 250 μl of the α-amylase solution prepared in (iii) was mixed 1.0 ml of the coupled enzyme. The mixture was heated at 37° C. for 1 minute, and 2.0 ml of the substrate solution was added with stirring to the mixture. The variation of absorbance at 400 nm was measured for 2 minutes after heating the mixture at 37° C. for 2 minutes. The hydrolysis rate of each substrate, namely the variable absorbance per unit time was expressed with the relative values to the hydrolysis rate of 3 mM G5CNP (the reference substrate) which is defined as 10.
(§4) S: amylase derived from human saliva.

[3] = molecular target: T2, amylase derived from human pancreatic juice (human P type α-amylase) (Homo sapiens, UniProt P04746); assay: Km value, P type α-amylase; assay type: biochemical; conditions: pH 7.0, 37° C., Lineweaver-Burk
T2 sequence (P04746 16-511): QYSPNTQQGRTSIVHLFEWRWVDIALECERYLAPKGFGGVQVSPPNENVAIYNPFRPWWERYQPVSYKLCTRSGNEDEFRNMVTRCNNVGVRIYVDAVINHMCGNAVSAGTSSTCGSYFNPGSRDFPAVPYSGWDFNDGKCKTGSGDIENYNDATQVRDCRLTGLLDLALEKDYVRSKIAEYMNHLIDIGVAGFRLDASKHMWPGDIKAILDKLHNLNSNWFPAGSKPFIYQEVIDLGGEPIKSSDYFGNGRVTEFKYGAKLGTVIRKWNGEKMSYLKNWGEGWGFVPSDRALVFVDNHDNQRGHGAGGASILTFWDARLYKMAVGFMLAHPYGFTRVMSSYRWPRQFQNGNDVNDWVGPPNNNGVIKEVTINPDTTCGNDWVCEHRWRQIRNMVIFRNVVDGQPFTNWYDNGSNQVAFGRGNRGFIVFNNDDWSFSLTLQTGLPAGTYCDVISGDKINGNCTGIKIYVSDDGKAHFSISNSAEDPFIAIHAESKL
Procedure: (§5) Km values, hydrolysis rate, water solubility and the patterns of action in the hydrolysis of the present substrates 2-chloro-4-nitrophenyl 5^5 -eno-4^5 -O-mesyl-β-D-maltopentaoside (EMG5CNP) and 2-chloro-4-nitrophenyl 6^5 -azido-6^5 -deoxy- β-D-maltopentaoside (ADG5CNP) obtained in Example were examined in accordance with the following methods.
(§6) Substrate solutions were prepared by dissolving in a 50 mM phosphate buffer (pH=7.0) containing 40 mM NaCl and 2 mM MgCl2 a substrate to 0.16, 0.32, 0.48, 0.64, 0.80 and 0.96 mM, respectively.
(§7) The Km value of each substrate solution was obtained by measuring the hydrolysis rate of the substrate in accordance with the same procedure as in the measurement of hydrolysis rate described below and roughly calculating the Lineweaver-Burk's reciprocal plot (see "Tanpaku-Kohso no Jikken-hou", ed. Takeichi Horio & Jinpei Yamashita, Nanko-do, 1981).
(§8) Each substrate was dissolved in a 50 mM phosphate buffer (pH=7.0) containing 40 mM NaCl and 2 mM MgCl2 to make three substrate solutions in a concentration of 0.8-1.6 times and three substrate solutions in a concentration of 1.6-3.2 times per the roughly calculated Km value in the aforementioned paragraph (ii).
(§9) The Km value was calculated in accordance with the same procedure as in the aforementioned paragraph (ii).
(§10) P: amylase derived from human pancreatic juice, […]

[4] = molecular target: T1, amylase derived from human saliva (human S type α-amylase); assay: Patterns of action (hydrolyzed product by HPLC), S type α-amylase; assay type: biochemical; conditions: 0.5 mM substrate, 37° C., 20 minutes
Procedure: as §2
(§11) To 1.0 ml of the substrate solution was added 100 μl of the α-amylase solution prepared in the paragraph (iii) of the aforementioned hydrolysis rate, and the mixture, after stirred sufficiently, was subjected to reaction at 37° C. for 20 minutes. The hydrolyzed product was determined quantitatively by the high performance liquid chromatography of the reaction mixture.
as §4

Solubility in water = assay type: physicochemical; conditions: 20 g of substrate added to 100 ml of water
Procedure: To 100 ml of water was added 20 g of a substrate, and the dissolution state was observed.

[5] = molecular target: T2, amylase derived from human pancreatic juice (human P type α-amylase); assay: Hydrolysis rate, P type α-amylase; assay type: biochemical; conditions: relative to hydrolysis rate of 3 mM G5CNP defined as 10, substrate 7-9 times the Km
Procedure: as §1, §2, §3, §10

[6] = molecular target: T2, amylase derived from human pancreatic juice (human P type α-amylase); assay: Patterns of action (hydrolyzed product by HPLC), P type α-amylase; assay type: biochemical; conditions: 0.5 mM substrate, 37° C., 20 minutes
Procedure: as §2, §11, §10

[7] = molecular target: T1, amylase derived from human saliva (human S type α-amylase); assay: Km value, S type α-amylase; assay type: biochemical; conditions: pH 7.0, 37° C., Lineweaver-Burk
Procedure: as §5, §6, §7, §8, §9, §4

## [N-]=[N+]=NC[C@H]1O[C@H](O[C@H]2[C@H](O)[C@@H](O)[C@@H](O[C@H]3[C@H](O)[C@@H](O)[C@H](Oc4ccc([N+](=O)[O-])cc4Cl)O[C@@H]3CO)O[C@@H]2CO)[C@H](O)[C@@H](O)[C@@H]1O [Substrate solution (b) (Table 1), 2-chloro-4-nitrophenyl 6^3-azido-6^3-deoxy-β-D-maltotrioside, reference compound]
[1]; Table 1, α-amylase activity 250 IU/l
  Increase in absorbance for 2 minutes (corrected by the 0 IU/l of α-amylase activity): 0.002
[1]; Table 1, α-amylase activity 500 IU/l
  Increase in absorbance for 2 minutes (corrected by the 0 IU/l of α-amylase activity): 0.005
[1]
  hydrolysis by α-amylase (in words): hardly hydrolyzed

## C=C1O[C@H](O[C@H]2[C@H](O)[C@@H](O)[C@@H](O[C@H]3[C@H](O)[C@@H](O)[C@H](Oc4ccc([N+](=O)[O-])cc4Cl)O[C@@H]3CO)O[C@@H]2CO)[C@H](O)[C@@H](O)[C@@H]1OS(C)(=O)=O [Substrate solution (b) (Table 2), 2-chloro-4-nitrophenyl 5^3-eno-4^3 -O-mesyl-β-D-maltotrioside, reference compound]
[1]; Table 2, α-amylase activity 250 IU/l
  Increase in absorbance for 2 minutes (corrected by the 0 IU/l of α-amylase activity): 0.001
[1]; Table 2, α-amylase activity 500 IU/l
  Increase in absorbance for 2 minutes (corrected by the 0 IU/l of α-amylase activity): 0.002
[1]
  hydrolysis by α-amylase (in words): hardly hydrolyzed

## O=[N+]([O-])c1ccc(O[C@@H]2O[C@H](CO)[C@@H](O[C@H]3O[C@H](CO)[C@@H](O[C@H]4O[C@H](CO)[C@@H](O[C@H]5O[C@H](CO)[C@@H](O[C@H]6O[C@H](CO)[C@@H](O)[C@H](O)[C@H]6O)[C@H](O)[C@H]5O)[C@H](O)[C@H]4O)[C@H](O)[C@H]3O)[C@H](O)[C@H]2O)c(Cl)c1 [Example G5CNP, 2-chloro-4-nitrophenylβ-D-maltopentaoside, reference compound]
[2]
  Hydrolysis rate: 10
[3]
  Km: 290 µM
[4]
  Patterns of action, hydrolyzed product G2CNP: 83 mol %
  Patterns of action, hydrolyzed product G3CNP: 11 mol %
  Patterns of action, hydrolyzed product G4CNP: 4 mol %
  Patterns of action, hydrolyzed product GCNP: 2 mol %
Solubility in water
  Solubility in water: Good
[5]
  Hydrolysis rate: 10
[6]
  Patterns of action, hydrolyzed product G2CNP: 81 mol %
  Patterns of action, hydrolyzed product G3CNP: 8 mol %
  Patterns of action, hydrolyzed product G4CNP: 8 mol %
  Patterns of action, hydrolyzed product GCNP: 3 mol %
[7]
  Km: 370 µM
